# ± gives the expanded uncertainty stated by the source.
# Columns and labels:
# [1] = Liquid; for mass density: 298.15 K, 101.33 kPa; for Normal boiling temperature: Ebulliometric method (Recirculating still)
# [2] = refractive index (Na D-line) (dimensionless); conditions: 298.15 K; 101.33 kPa; Liquid; Standard Abbe refractometry
# [3] = xn = mol fraction of the nth substance listed; conditions: 298.15 K, 101 kPa, Liquid
# [4] = refractive index (Na D-line) (dimensionless); xn = mol fraction of the nth substance listed; conditions: 298.15 K, 101 kPa, Liquid, Standard Abbe refractometry
smiles,measurement,setting,value
CCC(C)CO (stereo unspecified) [2-methyl-1-butanol],mass density,[1],814.87 ± 0.27 kg/m3
same,Normal boiling temperature,[1],128.78 ± 0.3 °C
same,refractive index,[2],1.40872 ± 0.00032
CCC(C)CO (stereo unspecified) [2-methyl-1-butanol] + CC(C)CO,mass density,[3]; x2 = 0.051,814.19 ± 0.27 kg/m3
same,mass density,[3]; x2 = 0.101,813.53 ± 0.27 kg/m3
same,mass density,[3]; x2 = 0.151,812.85 ± 0.27 kg/m3
same,mass density,[3]; x2 = 0.2,812.17 ± 0.27 kg/m3
same,mass density,[3]; x2 = 0.25,811.49 ± 0.27 kg/m3
same,mass density,[3]; x2 = 0.3,810.75 ± 0.28 kg/m3
same,mass density,[3]; x2 = 0.35,810.03 ± 0.28 kg/m3
same,mass density,[3]; x2 = 0.401,809.29 ± 0.28 kg/m3
same,mass density,[3]; x2 = 0.45,808.55 ± 0.28 kg/m3
same,mass density,[3]; x2 = 0.5,807.79 ± 0.28 kg/m3
same,mass density,[3]; x2 = 0.549,807.02 ± 0.28 kg/m3
same,mass density,[3]; x2 = 0.599,806.25 ± 0.29 kg/m3
same,mass density,[3]; x2 = 0.65,805.45 ± 0.29 kg/m3
same,mass density,[3]; x2 = 0.701,804.63 ± 0.29 kg/m3
same,mass density,[3]; x2 = 0.749,803.86 ± 0.29 kg/m3
same,mass density,[3]; x2 = 0.8,803 ± 0.29 kg/m3
same,mass density,[3]; x2 = 0.85,802.17 ± 0.29 kg/m3
same,mass density,[3]; x2 = 0.899,801.17 ± 0.3 kg/m3
same,mass density,[3]; x2 = 0.95,800.1 ± 0.3 kg/m3
same,refractive index,[4]; x2 = 0.051,1.40802 ± 0.00032
same,refractive index,[4]; x2 = 0.101,1.40742 ± 0.00032
same,refractive index,[4]; x2 = 0.151,1.40674 ± 0.00032
same,refractive index,[4]; x2 = 0.2,1.40606 ± 0.00032
same,refractive index,[4]; x2 = 0.25,1.40538 ± 0.00032
same,refractive index,[4]; x2 = 0.3,1.40466 ± 0.00032
same,refractive index,[4]; x2 = 0.35,1.40397 ± 0.00032
same,refractive index,[4]; x2 = 0.401,1.40328 ± 0.00032
same,refractive index,[4]; x2 = 0.45,1.40252 ± 0.00032
same,refractive index,[4]; x2 = 0.5,1.40178 ± 0.00032
same,refractive index,[4]; x2 = 0.549,1.40107 ± 0.00032
same,refractive index,[4]; x2 = 0.599,1.40029 ± 0.00033
same,refractive index,[4]; x2 = 0.65,1.39946 ± 0.00033
same,refractive index,[4]; x2 = 0.701,1.39866 ± 0.00033
same,refractive index,[4]; x2 = 0.749,1.3979 ± 0.00033
same,refractive index,[4]; x2 = 0.8,1.39706 ± 0.00033
same,refractive index,[4]; x2 = 0.85,1.3962 ± 0.00033
same,refractive index,[4]; x2 = 0.899,1.39533 ± 0.00033
same,refractive index,[4]; x2 = 0.95,1.3945 ± 0.00033
CC(C)CO [2-methyl-1-propanol],mass density,[1],797.84 ± 0.3 kg/m3
same,Normal boiling temperature,[1],108 ± 0.3 °C
same,refractive index,[2],1.3937 ± 0.00033
CC(C)CO [2-methyl-1-propanol] + CCCCCO,mass density,[3]; x1 = 0.05,810.3 ± 0.27 kg/m3
same,mass density,[3]; x1 = 0.1,809.7 ± 0.27 kg/m3
same,mass density,[3]; x1 = 0.15,809.09 ± 0.27 kg/m3
same,mass density,[3]; x1 = 0.2,808.51 ± 0.27 kg/m3
same,mass density,[3]; x1 = 0.249,807.94 ± 0.28 kg/m3
same,mass density,[3]; x1 = 0.299,807.34 ± 0.28 kg/m3
same,mass density,[3]; x1 = 0.35,806.75 ± 0.28 kg/m3
same,mass density,[3]; x1 = 0.4,806.13 ± 0.28 kg/m3
same,mass density,[3]; x1 = 0.45,805.53 ± 0.28 kg/m3
same,mass density,[3]; x1 = 0.499,804.9 ± 0.28 kg/m3
same,mass density,[3]; x1 = 0.549,804.29 ± 0.28 kg/m3
same,mass density,[3]; x1 = 0.6,803.64 ± 0.29 kg/m3
same,mass density,[3]; x1 = 0.65,803.01 ± 0.29 kg/m3
same,mass density,[3]; x1 = 0.699,802.41 ± 0.29 kg/m3
same,mass density,[3]; x1 = 0.75,801.73 ± 0.29 kg/m3
same,mass density,[3]; x1 = 0.8,801.07 ± 0.29 kg/m3
same,mass density,[3]; x1 = 0.85,800.39 ± 0.29 kg/m3
same,mass density,[3]; x1 = 0.9,799.67 ± 0.3 kg/m3
same,mass density,[3]; x1 = 0.95,798.84 ± 0.3 kg/m3
same,refractive index,[4]; x1 = 0.05,1.4071 ± 0.00032
same,refractive index,[4]; x1 = 0.1,1.4065 ± 0.00032
same,refractive index,[4]; x1 = 0.15,1.40588 ± 0.00032
same,refractive index,[4]; x1 = 0.2,1.40524 ± 0.00032
same,refractive index,[4]; x1 = 0.249,1.4046 ± 0.00032
same,refractive index,[4]; x1 = 0.299,1.40394 ± 0.00032
same,refractive index,[4]; x1 = 0.35,1.40326 ± 0.00032
same,refractive index,[4]; x1 = 0.4,1.40259 ± 0.00032
same,refractive index,[4]; x1 = 0.45,1.40193 ± 0.00032
same,refractive index,[4]; x1 = 0.499,1.40124 ± 0.00032
same,refractive index,[4]; x1 = 0.549,1.40055 ± 0.00032
same,refractive index,[4]; x1 = 0.6,1.39983 ± 0.00032
same,refractive index,[4]; x1 = 0.65,1.3991 ± 0.00033
same,refractive index,[4]; x1 = 0.699,1.39834 ± 0.00033
same,refractive index,[4]; x1 = 0.75,1.39758 ± 0.00033
same,refractive index,[4]; x1 = 0.8,1.39683 ± 0.00033
same,refractive index,[4]; x1 = 0.85,1.39604 ± 0.00033
same,refractive index,[4]; x1 = 0.9,1.39524 ± 0.00033
same,refractive index,[4]; x1 = 0.95,1.39447 ± 0.00033
CC(C)CCO [3-methylbutan-1-ol],mass density,[1],806.78 ± 0.27 kg/m3
same,Normal boiling temperature,[1],131.12 ± 0.3 °C
same,refractive index,[2],1.40515 ± 0.00032
CC(C)CCO [3-methylbutan-1-ol] + CC(C)CO,mass density,[3]; x2 = 0.051,805.95 ± 0.46 kg/m3
same,mass density,[3]; x2 = 0.099,805.61 ± 0.46 kg/m3
same,mass density,[3]; x2 = 0.15,805.25 ± 0.46 kg/m3
same,mass density,[3]; x2 = 0.199,804.88 ± 0.46 kg/m3
same,mass density,[3]; x2 = 0.254,804.48 ± 0.46 kg/m3
same,mass density,[3]; x2 = 0.3,804.15 ± 0.46 kg/m3
same,mass density,[3]; x2 = 0.35,803.77 ± 0.47 kg/m3
same,mass density,[3]; x2 = 0.4,803.39 ± 0.47 kg/m3
same,mass density,[3]; x2 = 0.445,803.05 ± 0.47 kg/m3
same,mass density,[3]; x2 = 0.5,802.62 ± 0.47 kg/m3
same,mass density,[3]; x2 = 0.549,802.23 ± 0.47 kg/m3
same,mass density,[3]; x2 = 0.6,801.83 ± 0.47 kg/m3
same,mass density,[3]; x2 = 0.65,801.42 ± 0.47 kg/m3
same,mass density,[3]; x2 = 0.7,800.64 ± 0.48 kg/m3
same,mass density,[3]; x2 = 0.751,800.19 ± 0.48 kg/m3
same,mass density,[3]; x2 = 0.799,799.74 ± 0.48 kg/m3
same,mass density,[3]; x2 = 0.849,799.27 ± 0.48 kg/m3
same,mass density,[3]; x2 = 0.899,798.8 ± 0.48 kg/m3
same,mass density,[3]; x2 = 0.95,798.31 ± 0.48 kg/m3
same,refractive index,[4]; x2 = 0.051,1.40469 ± 0.00032
same,refractive index,[4]; x2 = 0.099,1.40418 ± 0.00032
same,refractive index,[4]; x2 = 0.15,1.40371 ± 0.00032
same,refractive index,[4]; x2 = 0.199,1.40318 ± 0.00032
same,refractive index,[4]; x2 = 0.254,1.4026 ± 0.00032
same,refractive index,[4]; x2 = 0.3,1.40212 ± 0.00032
same,refractive index,[4]; x2 = 0.35,1.40161 ± 0.00032
same,refractive index,[4]; x2 = 0.4,1.40109 ± 0.00032
same,refractive index,[4]; x2 = 0.445,1.4006 ± 0.00032
same,refractive index,[4]; x2 = 0.5,1.39997 ± 0.00032
same,refractive index,[4]; x2 = 0.549,1.3994 ± 0.00032
same,refractive index,[4]; x2 = 0.6,1.39879 ± 0.00032
same,refractive index,[4]; x2 = 0.65,1.39821 ± 0.00032
same,refractive index,[4]; x2 = 0.7,1.39764 ± 0.00032
same,refractive index,[4]; x2 = 0.751,1.39701 ± 0.00033
same,refractive index,[4]; x2 = 0.799,1.39636 ± 0.00033
same,refractive index,[4]; x2 = 0.849,1.39567 ± 0.00033
same,refractive index,[4]; x2 = 0.899,1.395 ± 0.00033
same,refractive index,[4]; x2 = 0.95,1.39435 ± 0.00033
CCCCCO [pentan-1-ol],mass density,[1],810.96 ± 0.27 kg/m3
same,Normal boiling temperature,[1],137.70 ± 0.3 °C
same,refractive index,[2],1.4077 ± 0.00032

# Reference: the NIST ThermoML archive (doi:10.1021/je060238o)
